{"source": "paper PMC8861095", "about": "“Neurotoxicological profile of the hallucinogenic compound 25I-NBOMe” (Scientific Reports, 2022)", "key": {"DNA [1]": {"tested_on": "DNA", "design": "method as in PMID 33337517", "conditions": "0.3 mg/kg; cited from earlier work"}, "[2]": {"tested_on": "rat primary cortical cultures", "design": "method as in PMID 31078573", "conditions": "30 μM; did not recover after 19 h of washout period; cited from earlier work"}, "[3]": {"design": "method as in PMID 20956470", "conditions": "cited from earlier work"}, "SN4741 cells": {"tested_on": "SN4741 cells", "conditions": "25–400 µM; cited from earlier work"}, "SH-SY5Y cells": {"tested_on": "SH-SY5Y cells", "conditions": "cited from earlier work"}, "PC12 cells": {"tested_on": "PC12 cells", "conditions": "25–400 µM; cited from earlier work"}, "DNA [4]": {"tested_on": "DNA", "experiment": "Alkaline comet assay on nuclei from frontal cortex and hippocampus", "assay_type": "in vivo, rat", "conditions": "for Damaging effect on DNA compared with 25I-NBOMe: frontal cortex and hippocampus, LSD 0.05 mg/kg, MDMA 5 mg/kg, 25I-NBOMe 0.3 mg/kg; for Tail moment after four injections compared with the acute one: 5 mg/kg ip × 4 vs acute; for DNA damage (tail moment): vs control", "method": "Animals received single or multiple (once per day for seven days) subcutaneous injections of 25I-NBOMe dissolved in 0.9% NaCl at a dose of 0.3 mg/kg/2 ml. The control group was treated with 0.9% NaCl solution in the same way. All procedures were performed 72 h after the last injection. The time point of 72 h was chosen due to the possible generation of neurotoxicity via oxidative stress caused by reactive oxygen species (ROS). Exceptionally, for initial 25I-NBOMe brain distribution studies, rats received the drug in the dose of 1 and 10 mg/kg and were sacrificed 15 min after the drug administration. The rat blood plasma and brain tissues were collected immediately after rats’ decapitation. LSD (0.05 mg/kg, ip) was given daily for 7 days in a volume of 1 ml/kg, while MDMA 5 mg/kg, ip was injected in a volume of 2 ml/kg every second day (overall 4 injections).\nThe alkaline comet assay was performed with the use of CometAssay® Reagent Kit for Single Cell Gel Electrophoresis Assay. At 72 h after the acute and chronic treatment with 25I-NBOMe (0.3 mg/kg, sc × 7 days), LSD (0.05 mg/kg, ip × 7 days) or MDMA (5 mg/kg, ip × 4 doses every second day) animals were sacrificed by decapitation and the frontal cortex (that consist of the sum of FC and mPFC) and hippocampus were dissected. After homogenization and several purification and centrifugation stages (as described previously in[17]), the nuclear suspension was obtained using a sucrose gradient (2.8 M/2.6 M, bottom to top). The nuclear fraction was mixed with low melting point agarose and transferred immediately onto CometSlides™. The following steps, including membrane lysis, DNA unwinding, alkaline electrophoresis, and staining (SYBR® Gold), were carried out according to Trevigen CometAssay® protocol. Stained sections were acquired and analyzed under a fluorescence microscope (Nikon Eclipse50i, Japan) equipped with a camera and NIS Elements software. The data was analyzed using OpenComet software v.1.3 (cometbio.org), a plugin of ImageJ program v.1.47 (NIH, Bethesda, MD, USA). DNA damage was presented as a tail moment. Tail moment incorporates a measure of both the smallest detectable size of migrating DNA (reflected by the comet tail length) and the number of damaged pieces (represented by the intensity of DNA in the tail)."}}, "data": [{"smiles": "COc1cc(CCNCc2ccccc2OC)c(OC)cc1Br", "note": "[25B-NBOMe]", "values": [{"measurement": "DNA damage in the rat frontal cortex", "setting": "DNA [1]", "value": "potent in damaging DNA"}, {"measurement": "Neuronal activity", "setting": "[2]", "value": "decreased neuronal activity"}]}, {"smiles": "COc1cc(CCNCc2ccccc2OC)c(OC)cc1I", "note": "[^11C-CIMBI-5]", "values": [{"measurement": "Location in brain shortly after intravenous injection", "setting": "[3]", "value": "located in the cortex and the lower range in the cerebellum"}]}, {"smiles": "COc1cc(CCNCc2ccccc2OC)c(OC)cc1Cl", "note": "[25C-NBOMe]", "values": [{"measurement": "Cell viability", "setting": "SN4741 cells", "value": "potent reduction"}, {"measurement": "Cell viability", "setting": "SH-SY5Y cells; 25–400 µM", "value": "potent reduction"}, {"measurement": "Potency to reduce SH-SY5Y cells in respect to methamphetamine", "setting": "SH-SY5Y cells", "value": 50, "unit": "times"}, {"measurement": "Cell viability", "setting": "PC12 cells", "value": "potent reduction"}]}, {"smiles": "CNC(C)Cc1ccc2c(c1)OCO2", "note": "(centres unmarked) [MDMA, 3,4-methylenedioxymethamphetamine]", "values": [{"measurement": "Damaging effect on DNA compared with 25I-NBOMe", "setting": "DNA [4]", "value": "nearly equal to 25I-NBOMe in oxidative damage of DNA"}, {"measurement": "Tail moment after four injections compared with the acute one", "setting": "DNA [4]; frontal cortex, 72 h", "value": "stronger increase in the tail moment value"}, {"measurement": "DNA damage (tail moment)", "setting": "DNA [4]; frontal cortex, acute and chronic (4 injections every second day) 5 mg/kg ip, 72 h", "value": "exhibited DNA damaging properties"}, {"measurement": "Tail moment after four injections compared with the acute one", "setting": "DNA [4]; hippocampus, 72 h", "value": "stronger increase in the tail moment value"}, {"measurement": "DNA damage (tail moment)", "setting": "DNA [4]; hippocampus, acute and chronic (4 injections every second day) 5 mg/kg ip, 72 h", "value": "exhibited DNA damaging properties"}]}, {"smiles": "CCN(CC)C(=O)[C@@H]1C=C2c3cccc4[nH]cc(c34)C[C@H]2N(C)C1", "note": "[LSD, lysergic acid diethylamide]", "values": [{"measurement": "Damaging effect on DNA compared with 25I-NBOMe", "setting": "DNA [4]", "value": "weaker in its damaging effect on DNA than 25I-NBOMe"}, {"measurement": "DNA damage after chronic administration compared with a single dose", "setting": "DNA [4]; frontal cortex, 0.05 mg/kg ip × 7 vs single, 72 h", "value": "significantly greater after chronic administration"}, {"measurement": "DNA damage (tail moment)", "setting": "DNA [4]; frontal cortex, single and 7-day treatment 0.05 mg/kg ip, 72 h", "value": "caused DNA damage"}, {"measurement": "DNA damage after repeated injections compared with a single dose", "setting": "DNA [4]; hippocampus, 0.05 mg/kg ip × 7 vs single, 72 h", "value": "higher DNA damage than the single dose"}, {"measurement": "DNA damage (tail moment)", "setting": "DNA [4]; hippocampus, acute and chronic (× 7) 0.05 mg/kg ip, 72 h", "value": "significant increase in the tail moment value"}]}]}
